Assay results from the supplement of paper PMC10331698.
± gives the standard deviation of the averaged measurements.

Columns and labels:
Experiment in all cases: level (log10 ratio to DMSO vehicle control); higher = higher biomarker level / cell amount than vehicle control
Conditions in all cases: in DMSO
[1] = compound: FC(F)(F)C(F)(F)C(F)(F)C(F)(F)C(F)(F)C(F)(F)I [Perfluoro-1-iodohexane]
Description: (§1)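 BioMAP Diversity Plus panel of 12 human primary cell co-culture systems (3C, 4H, LPS, SAg, BT, BF4T, BE3C, CASM3C, HDF3CGF, KF3CT, MyoF, Mphg). Compounds were added 1 h before stimulation and left for 24 h (MyoF 48 h; BT 72 h for soluble read-outs or 6 d for IgG). Biomarkers were read by ELISA, cytotoxicity by SRB, PBMC viability and proliferation by Alamar Blue. Each well value was divided by the mean of 8 DMSO control wells on the same plate and log10 transformed; duplicate blinded samples were tested at 4 concentrations.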

[2] = compound: OCC(F)(F)OC(F)(F)C(F)(F)OC(F)(F)CO [1H,1H,8H,8H-Perfluoro-3,6-dioxaoctane-1,8-diol]
Description: as §1

[3] = compound: O=C(O)C(F)(F)C(F)(F)C(F)F [4H-Perfluorobutanoic acid]
Description: as §1

[4] = compound: FC(F)(F)C(F)(F)C(F)(F)C(F)(F)C(F)(F)CCI [1-Iodo-1H,1H,2H,2H-perfluoroheptane]
Description: as §1

[5] = compound: NCC(F)(F)C(F)(F)C(F)(F)C(F)(F)C(F)(F)C(F)(F)C(F)(F)F [1H,1H-Perfluorooctylamine]
Description: as §1

[6] = compound: O=C(O)C(F)(F)C(F)(F)C(F)(F)C(F)(F)F [Perfluoropentanoic acid]
Description: as §1

[7] = compound: C=C(C)C(=O)OCCC(F)(F)C(F)(F)C(F)(F)C(F)(F)C(F)(C(F)(F)F)C(F)(F)F [(Perfluoro-5-methylhexyl)ethyl 2-methylprop-2-enoate]
Description: as §1

BF4T:CXCL8/IL-8
level (log10) ([1]; 6700 nM): 0.0175 ± 0.021 | level (log10) ([1]; 20000 nM): -0.009 ± 0.058 | level (log10) ([1]; 60000 nM): 0.016 ± 0.058 | level (log10) ([2]; 6700 nM): 0.0225 ± 0.029 | level (log10) ([2]; 20000 nM): -0.0005 ± 0.029 | level (log10) ([2]; 60000 nM): 0 ± 0.023 | level (log10) ([3]; 6700 nM): 0.0385 ± 0.0078 | level (log10) ([3]; 20000 nM): 0.046 ± 0.024 | level (log10) ([3]; 60000 nM): 0.0445 ± 0.04 | level (log10) ([4]; 6700 nM): 0.0065 ± 0.016 | level (log10) ([4]; 20000 nM): 0.0295 ± 0.018 | level (log10) ([4]; 60000 nM): 0.0605 ± 0.011 | level (log10) ([5]; 6700 nM): 0.039 ± 0.021 | level (log10) ([5]; 20000 nM): 0.009 ± 0.014 | level (log10) ([5]; 60000 nM): 0.039 ± 0.0085 | level (log10) ([6]; 6700 nM): -0.0345 ± 0.013 | level (log10) ([6]; 20000 nM): -0.0295 ± 0.013 | level (log10) ([6]; 60000 nM): -0.0105 ± 0.035 | level (log10) ([7]; 6700 nM): 0.067 ± 0.037 | level (log10) ([7]; 20000 nM): 0.035 ± 0.027

4H:CD62P/P-selectin
level (log10) ([1]; 6700 nM): 0.034 ± 0.028 | level (log10) ([1]; 20000 nM): -0.012 ± 0.11 | level (log10) ([1]; 60000 nM): 0.0625 ± 0.14 | level (log10) ([2]; 6700 nM): 0.0225 ± 0.091 | level (log10) ([2]; 20000 nM): 0.034 ± 0.055 | level (log10) ([2]; 60000 nM): 0.0615 ± 0.046 | level (log10) ([3]; 6700 nM): -0.0185 ± 0.042 | level (log10) ([3]; 20000 nM): 0.0005 ± 0.057 | level (log10) ([3]; 60000 nM): -0.011 ± 0.04 | level (log10) ([4]; 6700 nM): 0.028 ± 0.075 | level (log10) ([4]; 20000 nM): 0.049 ± 0.033 | level (log10) ([4]; 60000 nM): -0.0635 ± 0.044 | level (log10) ([5]; 6700 nM): 0.0025 ± 0.019 | level (log10) ([5]; 20000 nM): -0.028 ± 0.021 | level (log10) ([5]; 60000 nM): -0.0525 ± 0.047 | level (log10) ([6]; 6700 nM): -0.0025 ± 0.067 | level (log10) ([6]; 20000 nM): -0.023 ± 0.03 | level (log10) ([6]; 60000 nM): -0.0285 ± 0.043 | level (log10) ([7]; 6700 nM): -0.017 ± 0.03 | level (log10) ([7]; 20000 nM): -0.02 ± 0.028

SAg:Proliferation
level (log10) ([1]; 6700 nM): -0.031 ± 0.044 | level (log10) ([1]; 20000 nM): -0.055 ± 0.02 | level (log10) ([1]; 60000 nM): -0.0395 ± 0.04 | level (log10) ([2]; 6700 nM): -0.025 ± 0.013 | level (log10) ([2]; 20000 nM): -0.0195 ± 0.023 | level (log10) ([2]; 60000 nM): -0.0055 ± 0.015 | level (log10) ([3]; 6700 nM): -0.0545 ± 0.026 | level (log10) ([3]; 20000 nM): -0.0325 ± 0.025 | level (log10) ([3]; 60000 nM): -0.0145 ± 0.03 | level (log10) ([4]; 6700 nM): -0.014 ± 0.035 | level (log10) ([4]; 20000 nM): -0.0145 ± 0.0064 | level (log10) ([4]; 60000 nM): -0.15 ± 0.054 | level (log10) ([5]; 6700 nM): -0.004 ± 0.024 | level (log10) ([5]; 20000 nM): -0.0195 ± 0.019 | level (log10) ([5]; 60000 nM): -0.174 ± 0.24 | level (log10) ([6]; 6700 nM): -0.0195 ± 0.04 | level (log10) ([6]; 20000 nM): 0.0205 ± 0.046 | level (log10) ([6]; 60000 nM): 0.0175 ± 0.08 | level (log10) ([7]; 6700 nM): 0.011 ± 0.0085 | level (log10) ([7]; 20000 nM): 0.009 ± 0.018

BT:B cell Proliferation
level (log10) ([1]; 6700 nM): -0.011 ± 0.054 | level (log10) ([1]; 20000 nM): -0.008 ± 0.011 | level (log10) ([1]; 60000 nM): -0.0135 ± 0.025 | level (log10) ([2]; 6700 nM): -0.011 ± 0.0071 | level (log10) ([2]; 20000 nM): 0 ± 0.0014 | level (log10) ([2]; 60000 nM): -0.0145 ± 0.0078 | level (log10) ([3]; 6700 nM): 0.016 ± 0.0099 | level (log10) ([3]; 20000 nM): 0.0055 ± 0.019 | level (log10) ([3]; 60000 nM): 0.0065 ± 0.036 | level (log10) ([4]; 6700 nM): -0.0065 ± 0.049 | level (log10) ([4]; 20000 nM): 0.0095 ± 0.015 | level (log10) ([4]; 60000 nM): -0.0815 ± 0.023 | level (log10) ([5]; 6700 nM): 0.0105 ± 0.025 | level (log10) ([5]; 20000 nM): 0.0195 ± 0.016 | level (log10) ([5]; 60000 nM): 0.039 ± 0.023 | level (log10) ([6]; 6700 nM): 0.009 ± 0.0057 | level (log10) ([6]; 20000 nM): 0.0215 ± 0.06 | level (log10) ([6]; 60000 nM): 0.0275 ± 0.012 | level (log10) ([7]; 6700 nM): -0.027 ± 0.011 | level (log10) ([7]; 20000 nM): 0.001 ± 0.017

3C:Proliferation
level (log10) ([1]; 6700 nM): -0.0215 ± 0.0064 | level (log10) ([1]; 20000 nM): -0.0205 ± 0.013 | level (log10) ([1]; 60000 nM): -0.041 ± 0.041 | level (log10) ([2]; 6700 nM): -0.066 ± 0.088 | level (log10) ([2]; 20000 nM): 0.037 ± 0.035 | level (log10) ([2]; 60000 nM): -0.0475 ± 0.064 | level (log10) ([3]; 6700 nM): -0.023 ± 0.02 | level (log10) ([3]; 20000 nM): -0.03 ± 0.041 | level (log10) ([3]; 60000 nM): 0.013 ± 0.065 | level (log10) ([4]; 6700 nM): 0.001 ± 0.027 | level (log10) ([4]; 20000 nM): -0.0465 ± 0.03 | level (log10) ([4]; 60000 nM): -0.163 ± 0.052 | level (log10) ([5]; 6700 nM): 0.004 ± 0.05 | level (log10) ([5]; 20000 nM): 0.004 ± 0.047 | level (log10) ([5]; 60000 nM): -0.0485 ± 0.063 | level (log10) ([6]; 6700 nM): -0.029 ± 0.028 | level (log10) ([6]; 20000 nM): 0.011 | level (log10) ([6]; 60000 nM): 0.0015 ± 0.046 | level (log10) ([7]; 6700 nM): 0.004 ± 0.052 | level (log10) ([7]; 20000 nM): -0.0305 ± 0.0021

BE3C:CD54/ICAM-1
level (log10) ([1]; 6700 nM): -0.006 ± 0.0014 | level (log10) ([1]; 20000 nM): -0.0125 ± 0.015 | level (log10) ([1]; 60000 nM): -0.005 ± 0.014 | level (log10) ([2]; 6700 nM): 0.0195 ± 0.013 | level (log10) ([2]; 20000 nM): 0.0045 ± 0.015 | level (log10) ([2]; 60000 nM): 0.0055 ± 0.022 | level (log10) ([3]; 6700 nM): -0.0085 ± 0.0021 | level (log10) ([3]; 20000 nM): -0.0245 ± 0.00071 | level (log10) ([3]; 60000 nM): 0.0125 ± 0.033 | level (log10) ([4]; 6700 nM): 0 ± 0.013 | level (log10) ([4]; 20000 nM): -0.016 ± 0.011 | level (log10) ([4]; 60000 nM): 0.006 ± 0.02 | level (log10) ([5]; 6700 nM): 0.009 ± 0.0099 | level (log10) ([5]; 20000 nM): -0.0045 ± 0.012 | level (log10) ([5]; 60000 nM): 0.017 ± 0.034 | level (log10) ([6]; 6700 nM): -0.006 ± 0.0085 | level (log10) ([6]; 20000 nM): -0.0095 ± 0.00071 | level (log10) ([6]; 60000 nM): 0.0055 ± 0.039 | level (log10) ([7]; 6700 nM): -0.0075 ± 0.0021 | level (log10) ([7]; 20000 nM): 0.005 ± 0.0042

LPS:CXCL8/IL-8
level (log10) ([1]; 6700 nM): -0.0045 ± 0.015 | level (log10) ([1]; 20000 nM): 0.005 | level (log10) ([1]; 60000 nM): 0.015 ± 0.017 | level (log10) ([2]; 6700 nM): 0.002 ± 0.0071 | level (log10) ([2]; 20000 nM): 0.0075 ± 0.015 | level (log10) ([2]; 60000 nM): 0.0075 ± 0.039 | level (log10) ([3]; 6700 nM): -0.0155 ± 0.019 | level (log10) ([3]; 20000 nM): -0.008 ± 0.02 | level (log10) ([3]; 60000 nM): 0.018 ± 0.024 | level (log10) ([4]; 6700 nM): 0.0065 ± 0.03 | level (log10) ([4]; 20000 nM): 0.0135 ± 0.005 | level (log10) ([4]; 60000 nM): 0.0145 ± 0.0021 | level (log10) ([5]; 6700 nM): -0.0315 ± 0.011 | level (log10) ([5]; 20000 nM): -0.0265 ± 0.0035 | level (log10) ([5]; 60000 nM): -0.0105 ± 0.033 | level (log10) ([6]; 6700 nM): -0.0075 ± 0.00071 | level (log10) ([6]; 20000 nM): -0.0095 ± 0.022 | level (log10) ([6]; 60000 nM): 0.0245 ± 0.052 | level (log10) ([7]; 6700 nM): 0.006 ± 0.045 | level (log10) ([7]; 20000 nM): 0.016 ± 0.047
